The values below come from article PMC6218659, “Structures of DPAGT1 Explain Glycosylation Disease Mechanisms and Advance TB Antibiotic Design” (Cell, 2018).

One test addresses T1, DPAGT1 Arg301His (Homo sapiens, UniProt Q9H3H5, R301H).
T1 construct: combined with the LIC-adapted primers to amplify the complete DPAGT1 gene, including the desired mutations; 6xHis purification tag with TEV site (N, cleaved yes); made in house; host or cells: Spodoptera frugiperda Sf9 insect cells (baculovirus)
T1 sequence (Q9H3H5 1-408 R301H): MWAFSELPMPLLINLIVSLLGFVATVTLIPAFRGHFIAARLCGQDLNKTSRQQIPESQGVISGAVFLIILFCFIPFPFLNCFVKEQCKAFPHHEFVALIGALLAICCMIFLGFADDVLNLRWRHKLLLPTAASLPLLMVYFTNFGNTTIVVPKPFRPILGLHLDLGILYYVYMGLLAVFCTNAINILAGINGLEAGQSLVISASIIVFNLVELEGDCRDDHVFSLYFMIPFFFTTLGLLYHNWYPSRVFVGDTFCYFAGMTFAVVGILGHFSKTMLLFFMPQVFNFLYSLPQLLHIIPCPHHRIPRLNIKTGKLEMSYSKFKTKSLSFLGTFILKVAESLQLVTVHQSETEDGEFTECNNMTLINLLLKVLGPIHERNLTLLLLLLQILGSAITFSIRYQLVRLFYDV
The experiment in a line: Thermostability assay (label free differential scanning fluorimetry). Type of test: binding, H. sapiens. The following applies: 50 μM compound. How it is done: (§1) Samples with a volume of 40 μl were prepared containing 0.5 mg/ml protein and 50 μM compound or 5% DMSO in GFB. A glass capillary was dipped into each sample, with the capillary held horizontally to ensure that the capillary was full of the sample. The capillaries were placed on the capillary holder on the Nanotemper Prometheus. Technical triplicates of each sample were prepared, and each experiment was conducted with biological triplicates of each protein. PR.ThermControl software was used to run the experiment and analyse the data. A melting curve from 20 °C – 95 °C at 5 °C/min was performed. The minimum of the first derivative of the 330/350nm ratio was used to determine the Tm1/2.
(In general: Differential scanning fluorimetry follows unfolding on heating by fluorescence.)

In the next test the target is T2, DPAGT1 Leu168Pro (Homo sapiens, UniProt Q9H3H5, L168P).
T2 construct: combined with the LIC-adapted primers to amplify the complete DPAGT1 gene, including the desired mutations; 6xHis purification tag with TEV site (N, cleaved yes); made in house; host or cells: Spodoptera frugiperda Sf9 insect cells (baculovirus)
T2 sequence (Q9H3H5 1-408 L168P): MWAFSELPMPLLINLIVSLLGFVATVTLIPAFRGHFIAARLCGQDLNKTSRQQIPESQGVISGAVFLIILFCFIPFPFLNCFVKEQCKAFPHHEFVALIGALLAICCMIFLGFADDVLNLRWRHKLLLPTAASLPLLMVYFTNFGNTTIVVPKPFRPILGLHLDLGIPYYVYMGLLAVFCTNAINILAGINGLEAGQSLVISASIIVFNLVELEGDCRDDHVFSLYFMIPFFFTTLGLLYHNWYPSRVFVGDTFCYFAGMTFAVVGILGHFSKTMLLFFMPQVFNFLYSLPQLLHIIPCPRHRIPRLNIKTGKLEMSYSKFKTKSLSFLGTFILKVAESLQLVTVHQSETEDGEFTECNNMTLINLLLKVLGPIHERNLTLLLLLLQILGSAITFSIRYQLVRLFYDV
The description is as above. The following applies: 50 μM compound. Type of test: binding, H. sapiens. How it is done: as §1

The target of the next test is T3, DPAGT1 Val264Gly (Homo sapiens, UniProt Q9H3H5, V264G).
T3 construct: H. sapiens DPAGT1 (1-408, Val264Gly, N-terminal 6 x HIS tag, TEV cleavage site); 6xHis purification tag with TEV site (N, cleaved yes); made in house; host or cells: Spodoptera frugiperda Sf9 insect cells (baculovirus)
T3 sequence (Q9H3H5 1-408 V264G): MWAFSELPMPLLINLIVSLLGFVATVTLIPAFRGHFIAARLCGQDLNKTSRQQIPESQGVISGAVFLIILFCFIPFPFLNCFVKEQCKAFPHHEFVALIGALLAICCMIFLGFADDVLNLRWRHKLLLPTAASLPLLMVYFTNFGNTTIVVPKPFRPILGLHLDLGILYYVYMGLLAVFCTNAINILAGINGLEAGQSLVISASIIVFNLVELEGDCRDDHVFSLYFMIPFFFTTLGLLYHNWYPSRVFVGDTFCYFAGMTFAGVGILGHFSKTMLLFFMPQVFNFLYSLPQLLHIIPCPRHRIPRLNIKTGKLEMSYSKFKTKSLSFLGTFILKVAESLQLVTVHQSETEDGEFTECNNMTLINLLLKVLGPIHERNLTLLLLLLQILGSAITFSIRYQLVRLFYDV
The test is described as above. The following applies: 50 μM compound. Format: binding, H. sapiens. The method, then: as §1

The target of another test is T4, DPAGT1 Tyr170Cys (Homo sapiens, UniProt Q9H3H5, Y170C).
T4 construct: combined with the LIC-adapted primers to amplify the complete DPAGT1 gene, including the desired mutations; 6xHis purification tag with TEV site (N, cleaved yes); made in house; host or cells: Spodoptera frugiperda Sf9 insect cells (baculovirus)
T4 sequence (Q9H3H5 1-408 Y170C): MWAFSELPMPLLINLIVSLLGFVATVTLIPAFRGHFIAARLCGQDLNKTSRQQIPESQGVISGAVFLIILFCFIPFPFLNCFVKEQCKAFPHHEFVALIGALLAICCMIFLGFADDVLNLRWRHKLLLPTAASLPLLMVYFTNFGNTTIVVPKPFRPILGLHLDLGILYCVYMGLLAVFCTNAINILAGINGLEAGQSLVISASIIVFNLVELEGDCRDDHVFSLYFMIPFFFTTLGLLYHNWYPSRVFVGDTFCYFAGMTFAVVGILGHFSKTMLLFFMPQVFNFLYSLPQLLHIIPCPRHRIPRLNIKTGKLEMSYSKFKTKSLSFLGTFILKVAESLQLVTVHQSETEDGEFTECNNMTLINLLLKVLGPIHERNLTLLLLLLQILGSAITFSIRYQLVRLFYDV
The description is as above. Format: binding, H. sapiens. The following applies: 50 μM compound. How it is done:
as §1

The target in a further test is T5, DPAGT1 Arg301Cys (Homo sapiens, UniProt Q9H3H5, R301C).
T5 construct: combined with the LIC-adapted primers to amplify the complete DPAGT1 gene, including the desired mutations; 6xHis purification tag with TEV site (N, cleaved yes); made in house; host or cells: Spodoptera frugiperda Sf9 insect cells (baculovirus)
T5 sequence (Q9H3H5 1-408 R301C): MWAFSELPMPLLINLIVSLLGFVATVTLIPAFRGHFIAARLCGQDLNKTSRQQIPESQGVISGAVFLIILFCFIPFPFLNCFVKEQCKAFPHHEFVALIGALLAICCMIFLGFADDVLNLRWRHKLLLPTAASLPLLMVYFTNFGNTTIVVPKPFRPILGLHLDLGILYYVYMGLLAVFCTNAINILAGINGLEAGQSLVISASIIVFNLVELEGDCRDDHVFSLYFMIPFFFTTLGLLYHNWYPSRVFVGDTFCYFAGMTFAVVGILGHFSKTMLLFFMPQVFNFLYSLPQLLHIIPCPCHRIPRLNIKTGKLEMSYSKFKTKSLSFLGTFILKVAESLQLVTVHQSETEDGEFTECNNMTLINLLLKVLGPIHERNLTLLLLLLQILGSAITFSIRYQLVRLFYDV
The test is described as above. Type of test: binding, H. sapiens. The following applies: 50 μM compound. How it is done:
as §1

Another test addresses T6, DPAGT1 WT (Homo sapiens, UniProt Q9H3H5).
T6 construct: H. sapiens DPAGT1 (1-408, N-terminal 6 x HIS tag, TEV cleavage site); 6xHis purification tag with TEV site (N, cleaved yes); made in house; host or cells: Spodoptera frugiperda Sf9 insect cells (baculovirus)
T6 sequence (Q9H3H5 1-408): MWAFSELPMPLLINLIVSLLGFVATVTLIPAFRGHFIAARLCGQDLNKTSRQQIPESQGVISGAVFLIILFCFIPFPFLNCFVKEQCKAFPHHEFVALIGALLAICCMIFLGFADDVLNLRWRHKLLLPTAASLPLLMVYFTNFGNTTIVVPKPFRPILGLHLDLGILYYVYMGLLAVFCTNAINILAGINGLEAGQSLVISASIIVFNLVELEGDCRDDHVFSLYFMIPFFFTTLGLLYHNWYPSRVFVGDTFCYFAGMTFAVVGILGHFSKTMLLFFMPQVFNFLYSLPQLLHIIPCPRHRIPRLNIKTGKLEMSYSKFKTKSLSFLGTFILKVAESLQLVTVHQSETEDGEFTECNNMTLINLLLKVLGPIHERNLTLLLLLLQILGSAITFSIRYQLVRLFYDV
The test is described as above. Type of test: binding, H. sapiens. The following applies: 50 μM compound. The method, then:
as §1

The next test has as its target T7, DPAGT1 (Homo sapiens, UniProt Q9H3H5).
T7 construct: H. sapiens DPAGT1 (1-408, N-terminal 6 x HIS tag, TEV cleavage site); 6xHis purification tag with TEV site (N, cleaved yes); made in house; host or cells: Spodoptera frugiperda Sf9 insect cells (baculovirus)
T7 sequence (Q9H3H5 1-408): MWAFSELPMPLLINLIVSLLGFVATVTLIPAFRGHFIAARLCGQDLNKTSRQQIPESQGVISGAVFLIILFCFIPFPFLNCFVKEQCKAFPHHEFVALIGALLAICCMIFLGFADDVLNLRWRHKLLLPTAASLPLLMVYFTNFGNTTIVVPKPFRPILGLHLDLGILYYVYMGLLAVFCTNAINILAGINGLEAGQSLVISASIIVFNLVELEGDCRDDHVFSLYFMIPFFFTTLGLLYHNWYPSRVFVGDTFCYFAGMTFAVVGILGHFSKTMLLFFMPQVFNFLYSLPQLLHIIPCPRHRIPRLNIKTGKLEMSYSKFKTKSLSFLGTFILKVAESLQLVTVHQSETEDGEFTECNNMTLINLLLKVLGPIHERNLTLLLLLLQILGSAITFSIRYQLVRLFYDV
The experiment in a line: Radiolabeled substrate enzyme activity assay. Format: biochemical, H. sapiens. The following applies: product inhibition test. The method, then: 2 μl of 2 μM DPAGT1 WT or mutant proteins in GFB buffer supplemented with 5mM extra MgCl2, 1% OGNG/CHS/cardiolipin and dolichyl monophosphate was combined with 2 μl of UDP-N-acetyl [1-14C] […] The reaction was terminated by the addition of 6 μl of 100% methanol and immediately transferred onto ice. 1 μl of sample was spotted onto a silica coated TLC plate in triplicate and run with a mobile phase consisting of chloroform, methanol, and water at a 65:25:4 ratio respectively. After the run, the TLC plate was dried thoroughly, wrapped in cling film, incubated with a phosphor imaging substrate for 4 days, then phosphor imaged using a Biorad. The pixel density of the spots corresponding to the hydrophobic product was divided by combined pixel density of the product and the substrate and multiplied by the known concentration of substrate added to ascertain the amount of product formed.

Turning to `CC(=O)NC1C(OP(=O)(O)OP(=O)(O)OCC2OC(n3ccc(=O)[nH]c3=O)C(O)C2O)OC(CO)C(O)C1O` (stereo not shown) [UDP-GlcNAc, UDP-N-acetyl glucosamine], the “Thermostability (Tm1/2) with added compound” value on DPAGT1 Arg301His amounted to 52.4±1.0 °C; at DPAGT1 Leu168Pro, 53.8±1.1 °C; on DPAGT1 Val264Gly, 54.6±0.4 °C; at DPAGT1 Tyr170Cys, 54.0±0.8 °C; on DPAGT1 Arg301Cys, 52.5±0.6 °C; at DPAGT1 WT, 55.1±0.4 °C.
For `O=c1ccn([C@@H]2O[C@H](COP(=O)(O)O)[C@@H](O)[C@H]2O)c(=O)[nH]1` [UMP], the “Thermostability (Tm1/2) with added compound” value at DPAGT1 Arg301His turned out to be 51.4±0.9 °C; at DPAGT1 Leu168Pro, 50.4±0.6 °C; on DPAGT1 Val264Gly it was 50.5±0.2 °C; at DPAGT1 Tyr170Cys, 50.7±0.3 °C; at DPAGT1 Arg301Cys, 51.4±0.8 °C; at DPAGT1 WT, 51.7±0.2 °C. Also, the “effect of adding product on DPAGT1 activity” value on DPAGT1 was “no effect”.
